Experimental data from patent US20130224110A1, “USE OF ADENOSINE RECEPTOR SIGNALING TO MODULATE PERMEABILITY OF BLOOD-BRAIN BARRIER” (CORNELL UNIVERSITY, priority 2010, published 2013).

Assays:
HCMECD3 cells = experiment: cAMP levels in human brain endothelial cells (cAMP Screen kit); format: cell-based; settings: 15 minutes
Description: […]3 cells were grown to confluencey on 24 well plates. As adenosine receptor (“AR”) stimulation is known to influence cAMP levels, cells were treated with or without various concentrations of NECA (general AR agonist), CCPA (A1 AR agonist), CGS 21860 (A2A AR agonist), DMSO vehicle, or Forksolin (induces cAMP). After 15 minutes, lysis buffer was added and the cells were frozen at -80 C to stop the reaction. Duplicate samples were used for each condition. cAMP levels were assayed using a cAMP Screen kit (Applied Biosystems, Foster City, Calif.).

hCMEC/D3 cells = experiment: Jurkat cell migration across hCMEC/D3 transwell in vitro BBB; format: cell-based, human; settings: 24 hours
Description: hCMEC/D3 cells were seeded onto Transwell and allowed to grow to confluencey. 2×10^6 Jurkat cells were added to the upper chamber with or without NECA (general adenosine receptor [AR] agonist), CCPA (A1 AR agonist), CGS 21860 (A2A AR agonist), or DMSO vehicle. After 24 hours, migrated cells in the lower chamber were counted. Values are relative to the number of cells that migrate through non-[…]3 seeded transwells.

Bend.3 cells = experiment: F-actin (phalloidin) staining of endothelial cells; format: cell-based, mouse; settings: BECs, 1 μM, 3 or 30 min, vs vehicle
Description: Bend.3 cells were grown (as described above) on circular cover slips in 24-well plates. Cells were treated for 3 or 30 min with 1 μM CCPA, 1 μM […], DMSO or media alone. Cover slips were washed with PBS, fixed in 4% paraformaldahyde, washed again in PBS and then permeabilized with 0.5% TritonX-100 in PBS. After washing in PBS/1% BSA, cover slips were blocked with 1% BSA then stained with Phallodin-Alexa 568. Cover slips were washed and mounted on slides with ProlongGold containing DAPI (Invitrogen). Images were obtained on an Olympus BX51 fluorescent microscope.

blood brain barrier = experiment: Fluorescently labeled dextran extravasation into mouse brain (fluorimetry); format: in vivo, mice; settings: wild type mice, 10,000 Da FITC-dextran, i.v., 3 h, vs vehicle
Description: The adenosine receptor agonists NECA, CCPA, CGS 21860, and SCH 58261 (Tocris, Ellisville, Mo.) were each dissolved in DMSO then diluted in PBS to the desired concentration; in most cases final DMSO concentrations were <0.5% (vol/vol). Lexiscan (Regadenoson; TRC, Inc., Toronto) was dissolved in PBS. For vehicle controls, DMSO was diluted in PBS to the same concentration. Dehydrated dextrans labeled with either FITC or Texas Red (Invitrogen, Carlsbad, Calif.) were re-suspended in PBS to 10 mg/ml. All experiments involving dextran injection used 1.0 mg dextran in PBS. In experiments where drug and dextran were injected concomitantly, 1.0 mg of dextran was mixed with the drug to the desired concentration in a final volume of 200 μl. In dose-response experiments, drugs and dextrans were injected concomitantly. All injections, except injections of SCH 58261, were retro-orbital i.v. with a 27-gauge needle. In the SCH 58261 experiment, SCH 58261 injections, 1 mg/kg, were intraperitoneal and mice were pre-dosed with this concentration daily for 4 days prior to the day of the experiment. An additional injection was administered at the time of the experiment. Vehicle/drug and dextrans were injected on day 5 and tissues were collected 3 h after vehicle/drug administration. In Lexiscan experiments, Lexiscan was administered i.v. with 3 injections, 5 min apart and tissues were collected at 15 min unless otherwise indicated.
In dose-response experiments and experiments with the A1 AR and A2A AR knock-out mice, drugs and dextrans were injected concomitantly. After 3 h, the mice were anesthetized with ketamine/xylazine and subjected to a nose cone containing isoflurane. They were perfused with 25-50 ml ice-cold PBS through the left ventricle of the heart then decapitated. Their brains were removed, weighed and frozen for later analysis.
Ice-cold 50 mMTris-Cl (pH 7.6) was added to frozen brains (100 μl per 100 mg brain) and were to thawed on ice. They were homogenized with a dounce homogenizer and centrifuged at […] in a microfuge for 30 min at room temperature (rt). The supernatants were transferred to new tubes and an equal volume absolute methanol was added. The samples were centrifuged again at […] for 30 min at rt. Supernatant (200 μl) was transferred to a Corning costar 96 well black polystyrene assay plate (clear bottom). Additionally, a series of standards containing 0.001-10 pg/ml dextran in 50% Tris-Cl/50% absolute methanol (vol/vol) was added to each plate. Absolute concentrations of dextrans were derived from these standard curves. Fluorimetric analysis was performed on a BioTek (Winooski, Vt.) Synergy 4. FITC-dextran was detected at 488/519 (excitation/emission) and Texas Red-dextran was detected at 592/618.

Z310 cells = experiment: Jurkat cell migration across Z310 choroid plexus cell transwell; format: cell-based, murine; settings: 24 hours, n=1
Description: To test the hypothesis, Transwell membranes were seeded with Z310 cells and allowed to grow to confluencey. 2×10^6 Jurkat cells were added to the upper chamber with or with out NECA (n=1, general AR agonist), CCPA (n=1, A1 AR agonist), CGS 21860 (n=1, A2A AR agonist), or DMSO vehicle(n=1). After 24 hours, migrated cells in the lower chamber were counted. Values are relative to the number of cells that migrate through non-Z310 seeded transwells and the results are shown in FIG. 12.

[1] = Klabunde 1983; cited from earlier work
EAE = EAE induction and scoring (MOG35-55/CFA/PTX); format: in vivo, mice
From the text: Cd73^−/− mice have been previously described (Thompson et al., “Crucial Role for Ecto-5′-Nucleotidase (CD73) in Vascular Leakage During Hypoxia,” J. Exp. Med. 200:1395-1405 (2004), which is hereby incorporated by reference in its entirety) and have been backcrossed to C57BL/6 for 14 generations. Cd73^−/− mice have no overt susceptibility to infection and appear normal based on the size and cellular composition of their lymphoid organs and their T and B cell responses in in vivo and in vitro assays (Thompson et al., “Crucial Role for Ecto-5′-Nucleotidase (CD73) in Vascular Leakage During Hypoxia,” J. Exp. Med. 200:1395-1405 (2004), which is hereby incorporated by reference in its entirety). C57BL/6 and tcrα^−/− mice on the C57BL/6 background were purchased from The Jackson Laboratories. Mice were bred and housed under specific pathogen-free conditions at Cornell University or the University of Turku. For adenosine receptor blockade experiments, mice were given drinking water supplemented with 0.6 g/L of caffeine (Sigma) or 2 mg/kg SCH58261 (1 mg/kg s.c. and 1 mg/kg i.p.) in DMSO (45% vol. in PBS) or 45% DMSO alone starting 1 day before EAE induction and continuing throughout the experiment. All procedures performed on mice were approved by the relevant animal review committee.
EAE was induced by subjecting mice to the myelin oligodendrocyte glycoprotein (“MOG”) EAE-inducing regimen as described in Swanborg, “Experimental Autoimmune Encephalomyelitis in Rodents as a Model for Human Demyelinating Disease,” Clin. Immunol. Immunopathol. 77:4-13 (1995) and Bynoe et al., “Epicutaneous Immunization with Autoantigenic Peptides Induces T Suppressor Cells that Prevent Experimental Allergic Encephalomyelitis,” Immunity 19:317-328 (2003), which are hereby incorporated by reference in their entirety. […] Mice were scored daily for EAE based on disease symptom severity; 0=no disease, 0.5-1=weak/limp tail, 2=limp tail and partial hind limb paralysis, 3=total hind limb paralysis, 4=both hind limb and fore limb paralysis, 5=death. […]
As CD73 catalyzes the breakdown of AMP to adenosine and ARs are expressed in the CNS (Tsutsui et al., “A1 Adenosine Receptor Upregulation and Activation Attenuates Neuroinflammation and Demyelination in a Model of Multiple Sclerosis,” J. Neurosci. 24:1521-1529 (2004)); Rosi et al., The Influence of Brain Inflammation Upon Neuronal Adenosine A2B Receptors,” J. Neurochem. 86:220-227 (2003), which are hereby incorporated by reference in their entirety), it was next determined if AR signaling is important during EAE progression. […] Since CD73 is highly expressed on the choroid plexus (FIG. 6C), it was next determined if ARs are also expressed on the choroid plexus. […]

| Molecule | cAMP levels (HCMECD3 cells) | lymphocyte (Jurkat) migration across the in vitro BBB (hCMEC/D3 cells) | dextran entry into the CNS (blood brain barrier) | lymphocyte (Jurkat) migration across the CP (Z310 cells) | further results |
| --- | --- | --- | --- | --- | --- |
| OC[C@H]1O[C@@H](n2cnc3c(NC4CCCC4)nc(Cl)nc32)[C@H](O)[C@@H]1O [CCPA, 2-chloro-N^6-cyclopentyladenosine] | increased cAMP levels | induced lymphocyte migration at high levels | increased dextran entry into the CNS | induced lymphocyte migration at high levels | actinomyosin stress fiber formation (Bend.3 cells): marked induction of actinomycin stress fibers |
| CCNC(=O)[C@H]1O[C@@H](n2cnc3c(N)nc(NCCc4ccc(CCC(=O)O)cc4)nc32)[C@H](O)[C@@H]1O [CGS 21680, 4-[2-[[6-Amino-9-(N-ethyl-b-D-ribofuranuronamidosyl)-9H-purin-2-yl]amino]ethyl]benzenepropanoic acid] | slightly increased cAMP levels | promoted lymphocyte migration across the in vitro BBB when used at a lower concentration | increased dextran entry into the CNS | promoted lymphocyte migration across the CP | – |
| Nc1ncnc2c1ncn2[C@@H]1O[C@H](CO)[C@@H](O)[C@H]1O [adenosine] | – | – | – | – | half-life [1]: < 10 s |
| Cn1c(=O)c2c(ncn2C)n(C)c1=O [caffeine] | – | – | – | – | EAE development (EAE; cd73−/− mice, caffeine 0.6 g/L in drinking water): did not develop EAE; EAE development (EAE; wild type mice, caffeine 0.6 g/L in drinking water from 1 day prior to and throughout EAE experiment): dramatically protected against EAE development |
| PEG-ADA: PEGylated adenosine deaminase (protein, UniProt P56658 2-363, looked up, PEGylated, PEGylated adenosine deaminase) Adenosine deaminase: AQTPAFNKPKVELHVHLDGAIKPETILYYGRKRGIALPADTPEELQNIIGMDKPLSLPEFLAKFDYYMPAIAGCREAVKRIAYEFVEMKAKDGVVYVEVRYSPHLLANSKVEPIPWNQAEGDLTPDEVVSLVNQGLQEGERDFGVKVRSILCCMRHQPSWSSEVVELCKKYREQTVVAIDLAGDETIEGSSLFPGHVKAYAEAVKSGVHRTVHAGEVGSANVVKEAVDTLKTERLGHGYHTLEDATLYNRLRQENMHFEVCPWSSYLTGAWKPDTEHPVVRFKNDQVNYSLNTDDPLIFKSTLDTDYQMTKNEMGFTEEEFKRLNINAAKSSFLPEDEKKELLDLLYKAYGMPSPASAEQCL | – | – | – | – | EAE development (EAE; wild-type mice, 15 units/kg i.p. every 4 days, vs PBS vehicle): inhibits the development of EAE |
